Reference: patent publication US8410161B2, “Thioxanthone ring system derivatives” (National Defense Medical Center, priority 2010, dated 2013)

Columns and labels:
Format in all cases: cell-based
[1] = system: A3 cell lines; test: MTT assay, A3 cell lines (lung cancer stem cell)
Excerpt: Please to FIG. 4B, various cell viabilities of the A3 cell lines can be obtained through the MTT assay and illustrated in FIG. 4B while the compounds No. 1˜30 are used to treat A3 cell lines, wherein A3 cell lines are lung cancer stem cell.

[2] = MTT assay, HEL299 fibroblast; settings: human
Excerpt: Please refer to FIG. 4C, various cell viabilities of the HEL299 cell lines can be obtained through the MTT assay while the compounds No. 1˜30 are used to treat HEL299 cell lines, wherein HEL299 cell lines are fibroblast.

[3] = system: A control cell lines; test: MTT assay, A control cell lines (lung cancer cell)
Excerpt: Please refer to Table 1 and FIGS. 4A-4C. According to a MTT assay (Table 1), various cell viabilities of the A control cell lines can be obtained and illustrated in FIG. 4A while the compounds No. 2˜30 are used to treat A control cell lines, wherein A control cell lines are lung cancer cell.

Compound | cell viabilities of A3 cell lines (MTT assay) [1] [%] | viability [2] [%] | cell viabilities of A control cell lines (MTT assay) [3] [%]
O=c1c2ccccc2sc2c(Cl)c(Cl)ccc12 [No. 1, 3,4-dichloro-9H-thioxanthen-9-one] | 83.7 ± 6.22 | 68.5 ± 12 | 
CCSc1ccc2c(=O)c3ccccc3sc2c1Cl [No. 2, 4-Chloro-3-(ethylthio)-9H-thioxanthen-9-one] | 72.7 ± 2.60 | 34 ± 7.95 | 85.1 ± 2.74
O=c1c2ccccc2sc2c(Cl)c(SC3CCCC3)ccc12 [No. 5, 4-Chloro-3-(cyclopentylthio)-9H-thioxanthen-9-one] | 107 ± 7.17 | 89.5 ± 13.7 | 108 ± 7.69
Cc1ccccc1Sc1ccc2c(=O)c3ccccc3sc2c1Cl [No. 7, 4-Chloro-3-(o-tolylthio)-9H-thioxanthen-9-one] | 81.6 ± 4.98 | 91.1 ± 18.7 | 103 ± 2.86
Cc1cccc(Sc2ccc3c(=O)c4ccccc4sc3c2Cl)c1 [No. 8, 4-Chloro-3-(m-tolylthio)-9H-thioxanthen-9-one] | 116 ± 1.49 | 74.8 ± 4.04 | 120 ± 1.51
Cc1ccc(Sc2ccc3c(=O)c4ccccc4sc3c2Cl)cc1 [No. 9, 4-Chloro-3-(p-tolylthio)-9H-thioxanthen-9-one] | 115 ± 4.55 | 98.4 ± 12.8 | 119 ± 4.69
Cc1ccc(C)c(Sc2ccc3c(=O)c4ccccc4sc3c2Cl)c1 [No. 11, 4-Chloro-3-(2,5-dimethylphenylthio)-9H-thioxanthen-9-one] | 96.9 ± 5.20 | 94.4 ± 10.1 | 105 ± 2.56
Cc1ccc(Sc2ccc3c(=O)c4ccccc4sc3c2Cl)cc1C [No. 13, 4-Chloro-3-(3,4-dimethylphenylthio)-9H-thioxanthen-9-one] | 112 ± 1.86 | 112 ± 11.2 | 113 ± 5.86
COc1ccccc1Sc1ccc2c(=O)c3ccccc3sc2c1Cl [No. 15, 4-Chloro-3-(2-methoxylphenylthio)-9H-thioxanthen-9-one] | 99.0 ± 3.41 | 73 ± 12.3 | 85.4 ± 9.66
COc1ccc(Sc2ccc3c(=O)c4ccccc4sc3c2Cl)cc1 [No. 17, 4-Chloro-3-(4-methoxylphenylthio)-9H-thioxanthen-9-one] | 89.4 ± 1.88 | 109 ± 14.5 | 97.1 ± 8.74
CCc1ccccc1Sc1ccc2c(=O)c3ccccc3sc2c1Cl [No. 18, 4-Chloro-3-(2-ethylphenylthio)-9H-thioxanthen-9-one] | 77.2 ± 5.23 | 104 ± 14.2 | 73.2 ± 10.2
CCOc1cccc(Sc2ccc3c(=O)c4ccccc4sc3c2Cl)c1 [No. 19, 4-Chloro-3-(3-ethoxylphenylthio)-9H-thioxanthen-9-one] | 98.2 ± 4.79 | 90.3 ± 14.4 | 91.3 ± 1.74
CC(C)c1ccc(Sc2ccc3c(=O)c4ccccc4sc3c2Cl)cc1 [No. 20, 4-Chloro-3-(4-isopropylphenylthio)-9H-thioxanthen-9-one] | 93.9 ± 6.97 | 110 ± 14.3 | 74.6 ± 11.2
CC(C)c1ccccc1Sc1ccc2c(=O)c3ccccc3sc2c1Cl [No. 21, 4-Chloro-3-(2-isopropylphenylthio)-9H-thioxanthen-9-one] | 93.7 ± 6.01 | 107 ± 5.4 | 83.5 ± 12.6
O=c1c2ccccc2sc2c(Cl)c(Sc3ccc(Br)cc3)ccc12 [No. 22, 3-(4-Bromophenylthio)-4-chloro-9H-thioxanthen-9-one] | 70.8 ± 3.86 | 66.1 ± 0.66 | 104 ± 1.89
O=c1c2ccccc2sc2c(Cl)c(Sc3cccc(Cl)c3)ccc12 [No. 30, 4-Chloro-3-(3-chlorophenylthio)-9H-thioxanthen-9-one] | 92.2 ± 6.17 | 101 ± 3.7 | 97.7 ± 1.46
